In patent US20250230193A1, “CYCLIC COMPOUND HAVING SELECTIVE KRAS INHIBITORY EFFECT ON HRAS AND NRAS” (CHUGAI SEIYAKU KABUSHIKI KAISHA, priority 2022, published 2025):

Legend:
[1] = target: GDP-bound NRAS wild-type protein (Homo sapiens, UniProt P01111); test: Binding to NRAS by surface plasmon resonance (SPR), Single Cycle Kinetics
[2] = target: GDP-bound HRAS wild-type protein (Homo sapiens, UniProt P01112); test: Binding to HRAS by surface plasmon resonance (SPR), Single Cycle Kinetics
[3] = KD ratio, GDP-bound NRAS wild-type vs GDP-bound KRAS wild-type, SPR
[4] = KD ratio, GDP-bound HRAS wild-type vs GDP-bound KRAS wild-type, SPR

GDP-bound HRAS wild-type protein, sequence (P01112 whole entry): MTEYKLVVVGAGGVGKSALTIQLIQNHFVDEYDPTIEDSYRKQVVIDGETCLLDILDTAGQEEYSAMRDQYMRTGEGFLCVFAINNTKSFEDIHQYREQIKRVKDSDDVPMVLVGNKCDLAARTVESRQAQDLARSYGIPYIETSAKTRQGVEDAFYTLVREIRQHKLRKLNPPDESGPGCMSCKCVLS
GDP-bound NRAS wild-type protein, sequence (P01111 whole entry): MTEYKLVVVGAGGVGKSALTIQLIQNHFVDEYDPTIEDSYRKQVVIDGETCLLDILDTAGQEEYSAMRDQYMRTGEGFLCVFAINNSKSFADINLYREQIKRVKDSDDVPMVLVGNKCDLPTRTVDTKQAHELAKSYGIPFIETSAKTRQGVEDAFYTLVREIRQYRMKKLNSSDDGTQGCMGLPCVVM

**Q.** Which results are given for `CCO[C@@H]1C[C@H]2C(=O)NC3(CCC3)C(=O)N(C)[C@@H](C3CCCC3)C(=O)N(C)[C@H](C(=O)N3CCOCC3)CC(=O)N(C)[C@@H](CC(C)(C)C)C(=O)N[C@@H]([C@@H](C)CC)C(=O)N(C)CC(=O)N(C)[C@H]3CCCCCN(C3=O)[C@@H](Cc3ccc(C(F)(F)F)cc3)C(=O)N(C)CC(=O)N[C@@H](CCc3cc(F)c(C(F)(F)F)c(F)c3)C(=O)N2C1` [PP0684]?
**A.** NRAS/KRAS (ratio of KD value with respect to GDP-bound NRAS wild-type protein to KD value with respect to KRAS) ([1]; SPR): B (a compound having 3 or more and less than 10 is denoted as B); HRAS/KRAS (ratio of KD value with respect to GDP-bound HRAS wild-type protein to KD value with respect to KRAS) ([2]; SPR): B (a compound having 3 or more and less than 10 is denoted as B)

**Q.** What does the source list for `CCCOC[C@H]1C(=O)N[C@@H]([C@@H](C)CC)C(=O)N(C)CC(=O)N(C)[C@H]2C/C=C\CCN(C2=O)[C@@H](Cc2ccc(C(F)(F)F)cc2)C(=O)N(C)CC(=O)N[C@@H](CCc2ccc(C(F)(F)F)c(OC)c2)C(=O)N2C[C@@H](C)C[C@H]2C(=O)NC2(CC(C)(C)C2)C(=O)N(C)[C@@H](C2CCCC2)C(=O)N(C)[C@H](C(=O)N(C)C)CC(=O)N1C` [PP1997]?
**A.** NRAS/KRAS (ratio of KD value for NRAS to KD value for KRAS) [1, 3]: A (a compound having 10 or more and less than 20 is denoted as A); HRAS/KRAS (ratio of KD value for HRAS to KD value for KRAS) [2, 4]: B (a compound having 3 or more and less than 10 is denoted as B)

**Q.** What does the source list for `CCOC[C@H]1C(=O)N[C@@H]([C@@H](C)CC)C(=O)N(C)CC(=O)N(C)[C@H]2C/C=C\CCN(C2=O)[C@@H](Cc2ccc(C)cc2)C(=O)N(C)CC(=O)N[C@@H](CCc2cc(F)c(C(F)(F)F)c(F)c2)C(=O)N2C[C@@H](C)C[C@H]2C(=O)NC2(CC(C)(C)C2)C(=O)N(C)[C@@H](C2CCCC2)C(=O)N(C)[C@H](C(=O)N(C)CC)CC(=O)N1C` [PP2457]?
**A.** NRAS/KRAS (ratio of KD value with respect to NRAS to KD value with respect to KRAS) ([1]; SPR, GDP-bound NRAS wild-type vs GDP-bound KRAS wild-type): A (a compound having 10 or more and less than 20 is denoted as A); HRAS/KRAS (ratio of KD value with respect to HRAS to KD value with respect to KRAS) ([2]; SPR, GDP-bound HRAS wild-type vs GDP-bound KRAS wild-type): A (a compound having 10 or more and less than 20 is denoted as A)

**Q.** For `CCC[C@H]1C(=O)N[C@@H]([C@@H](C)CC)C(=O)N(C)CC(=O)N(C)[C@H]2C/C=C\CCN(C2=O)[C@@H](Cc2ccc(C)cc2)C(=O)N(C)CC(=O)N[C@@H](CCc2ccc(Cl)c(Cl)c2)C(=O)N2C[C@H](OCC)C[C@H]2C(=O)NC2(CC(C)(C)C2)C(=O)N(C)[C@@H](CC(C)(C)C)C(=O)N(C)[C@H](C(=O)N(C)C)CC(=O)N1C` [PP2714], which “NRAS/KRAS (ratio of KD value with respect to GDP-bound NRAS wild-type protein to KD value with respect to KRAS)” value ([1]; class symbols) is on record?
**A.** A (a compound having 10 or more and less than 20 is denoted as A)

**Q.** What about the “HRAS/KRAS (ratio of KD value with respect to GDP-bound HRAS wild-type protein to KD value with respect to KRAS)” value ([2]; class symbols) of the same compound?
**A.** A (a compound having 10 or more and less than 20 is denoted as A)

**Q.** How did the “NRAS/KRAS (ratio of KD value with respect to NRAS to KD value with respect to KRAS)” value [1, 3] turn out when `CCO[C@@H]1C[C@H]2C(=O)NC3(CCC3)C(=O)N(C)[C@@H](C3CCCC3)C(=O)N[C@H](C)CC(=O)N(C)[C@@H](CC)C(=O)N[C@@H]([C@@H](C)CC)C(=O)N(C)CC(=O)N(C)[C@H]3C/C=C\CCN(C3=O)[C@@H](Cc3ccc(C(F)(F)F)cc3)C(=O)N(C)CC(=O)N[C@@H](CCc3cc(F)c(C(F)(F)F)c(F)c3)C(=O)N2C1` [PP1098] was run?
**A.** B (a compound having 3 or more and less than 10 is denoted as B)

**Q.** And the “HRAS/KRAS (ratio of KD value with respect to HRAS to KD value with respect to KRAS)” value [2, 4]?
**A.** B (a compound having 3 or more and less than 10 is denoted as B)
